Data: patent US9884094B2, “Method of treating diabetes mellitus” (Novo Nordisk A/S, priority 2012, dated 2018)

Assays:
human insulin receptor = human insulin receptor (Homo sapiens, UniProt P06213); experiment: Insulin receptor binding, SPA antibody capture assay (Assay I); details: recombinant human insulin receptor, A14 Tyr[125I]-human insulin
Experimental: A total of 100 μl was then added and a dilution series is made from appropriate samples. […] The phases were the then separated by centrifugation for 1 min and the plates counted in a Topcounter. The binding data were fitted using the nonlinear regression algorithm in the GraphPad Prism 2.01 (GraphPad Software, San Diego, Calif.).
Specific antibodies (F12) were produced by monoclonal technique: RBF mice were immunized by injecting 50 μg of purified mIR in FCA subcutaneously followed by two injections with 20 μg of mIR in FIA. […] Supernatants were screened for antibody production in a mIR specific ELISA. Positive wells were cloned and tested in Western blotting.

[1] = Hydrophobicity k′rel by RP-HPLC relative to human insulin; type: physicochemical; details: LiChrosorb RP18, isocratic, 40° C., pH 7.3
Experimental: The elution was monitored by following the UV absorption of the eluate at 214 nm. Void time, t0, was found by injecting 0.1 mM sodium nitrate.

Sequence of human insulin receptor (P06213 28-1370 isoform P06213-2 limits assumed): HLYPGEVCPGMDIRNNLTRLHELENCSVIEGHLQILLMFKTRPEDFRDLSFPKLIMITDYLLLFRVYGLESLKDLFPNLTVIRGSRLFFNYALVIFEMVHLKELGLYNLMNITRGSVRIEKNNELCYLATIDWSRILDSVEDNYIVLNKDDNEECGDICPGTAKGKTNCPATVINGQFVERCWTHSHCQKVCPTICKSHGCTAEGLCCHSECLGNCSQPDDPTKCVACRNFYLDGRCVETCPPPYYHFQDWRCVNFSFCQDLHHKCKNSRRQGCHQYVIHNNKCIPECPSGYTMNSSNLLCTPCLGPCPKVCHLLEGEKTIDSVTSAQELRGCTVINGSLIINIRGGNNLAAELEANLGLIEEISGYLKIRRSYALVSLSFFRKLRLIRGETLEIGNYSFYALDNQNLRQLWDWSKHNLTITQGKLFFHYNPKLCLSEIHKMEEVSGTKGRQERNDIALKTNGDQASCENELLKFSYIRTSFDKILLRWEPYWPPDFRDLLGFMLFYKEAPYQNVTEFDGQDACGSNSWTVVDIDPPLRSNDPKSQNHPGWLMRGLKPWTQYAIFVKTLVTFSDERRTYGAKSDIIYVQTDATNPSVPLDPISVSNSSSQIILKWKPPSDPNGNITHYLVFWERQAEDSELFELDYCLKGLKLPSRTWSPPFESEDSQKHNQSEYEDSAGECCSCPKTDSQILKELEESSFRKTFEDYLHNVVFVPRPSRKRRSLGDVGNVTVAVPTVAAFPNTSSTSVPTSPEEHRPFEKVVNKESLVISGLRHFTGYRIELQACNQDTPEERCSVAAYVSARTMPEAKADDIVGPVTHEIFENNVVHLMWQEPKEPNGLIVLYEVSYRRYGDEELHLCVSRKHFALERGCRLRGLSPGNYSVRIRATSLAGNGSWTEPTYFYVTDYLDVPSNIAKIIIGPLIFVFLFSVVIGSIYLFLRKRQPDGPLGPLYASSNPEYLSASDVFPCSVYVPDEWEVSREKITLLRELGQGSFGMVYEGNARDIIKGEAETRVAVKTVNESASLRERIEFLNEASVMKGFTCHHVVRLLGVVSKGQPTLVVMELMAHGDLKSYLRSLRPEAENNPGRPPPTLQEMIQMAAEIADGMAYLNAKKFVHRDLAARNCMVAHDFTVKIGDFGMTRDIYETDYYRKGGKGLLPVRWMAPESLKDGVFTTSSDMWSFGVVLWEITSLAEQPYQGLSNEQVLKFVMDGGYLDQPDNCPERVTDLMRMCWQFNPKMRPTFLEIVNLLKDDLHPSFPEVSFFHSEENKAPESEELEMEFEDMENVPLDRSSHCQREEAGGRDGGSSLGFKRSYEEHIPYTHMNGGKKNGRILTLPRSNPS

Substance | Receptor binding (% of human insulin) (human insulin receptor) | k′rel (hydrophobic index relative to human insulin) [1]
N^εB29—(N-(L-Glu-OC(CH2)14CO—) des(B30) Human Insulin | 9.4 % of human insulin | 1.17
N^εB29—(N-(L-Sar-OC(CH2)13CO-γ-L-Glu) des(B30) Human Insulin | 20 % of human insulin | 0.63
N^εB29—(N^α—(HOOC(CH2)16CO)-γ-Glu-N-(γ-Glu)) des(B30) Human Insulin |  | 1.17
N^εB29—(N—(HOOC(CH2)14CO-ε-L-LysCO—) des(B30) Human Insulin | 5.7 % of human insulin | 0.90
N^εB29—[N—(HOOC(CH2)16CO)—N-(carboxymethyl)-β-Ala] des(B30) Human Insulin | 9.4 % of human insulin | 
NεB29-(Nα—(HOOC(CH2)16CO)-γ-Glu) des(B30) Human Insulin | 9.2 % of human insulin | 1.15
